Consider one compound from patent US12186290B2, “Methods for the treatment of glioblastoma multiforme” (priority 2017, dated 2025).

SMILES strings stand for the structures.

The data set is described as follows: solubility in water. Type of data set: physicochemical.

As for `NC(=O)C(CCC(=O)[O-])NC(=O)Cc1ccccc1.[Na+]` (stereo not shown) [Iso-PG, phenylacetylisoglutaminate sodium], the solubility in water result is “soluble in water”.
